Data as given in US20260337212A1, “IP4-4,6 SUBSTITUTED DERIVATIVE COMPOUNDS FOR USE IN THE TREATMENT, INHIBITION OF PROGRESSION, AND PREVENTION OF ECTOPIC CALCIFICATION” (SANIFIT THERAPEUTICS, S.A., priority 2022, published 2026).
Counter-ions that a name gives are not always drawn.

Assay: In vitro inhibition of calcium phosphate crystallization in human plasma (spectrophotometric)
Format: biochemical
Details: 0-100 μM, 1.5 mM phosphate, 12.5 mM calcium, pH 7.4, 30 min, rt, read-out: Relative Potency (EC50, inhibition of calcium phosphate crystallization)
Procedure: The in vitro efficacy of the IP4-4,6 substituted derivatives (e.g., Compounds 1 to 53) of the invention on the inhibition of calcium phosphate crystallization in human plasma samples was evaluated according to a spectrophotometric assay previously described in the art (Ferrer M, et al., Sci Rep 2017; 7:6858, doi:10.1038/s41598-017-07203-x).
A 96-well plate was employed. Plasma was spiked (1 volume of the IP4-4,6 substituted derivatives of the invention per 19 volumes of plasma) with increasing concentrations of the derivatives in the range of 0-100 μM. Plasma was then centrifuged at 10,000 g at rt and subsequently mixed with a mixture of 5 mM hydrogen phosphate and 41.67 mM calcium to attain final concentrations of 1.5 mM phosphate and 12.5 mM calcium, respectively. All reagent solutions were filtered, and pH adjusted to 7.4.
Crystallization of calcium phosphate was monitored spectrophotometrically for 30 min at rt by measuring the increments in absorbance at 550 nm using the Biotek Powerwave XS Microplate spectrophotometer (BioTek Instruments, Inc., Winooski, VT, US). The plate was incubated at rt in an orbital shaker and absorbance measured every 3 min.
Plasma crystallization was assessed based on slope measurement in the linear range between 6 and 24 min from plots of increase in absorbance versus logarithm of time. The efficacy of different myo-inositol phosphates derivatives in preventing in vitro formation of calcium phosphate crystals was assessed in human plasma samples using the slopes obtained between 6- and 24-min. Inhibition of crystallization was measured by comparing the slopes of the control sample (blank plasma) with those of samples containing the inhibitor as shown below: […]

Row | Compound | EC50
1 | 4,6-O-(6-(4-carboxy-1H-1,2,3-triazol-1-yl) hexyl)-myo-inositol-1,2,3,5-tetrakis(phosphate) decasodium salt [Compound 40] | ≤ 5 µM
2 | 4,6-O-bis(2-(4-acetylpiperazin-1-yl)ethyl)-myo-inositol-1,2,3,5-tetrakis(phosphate) octasodium salt [Compound 34] | 5 to 10 µM
3 | 4,6-O-bis(3-(3-phenylureido)propyl)-myo-inositol-1,2,3,5-tetrakis(phosphate) octasodium salt [Compound 46] | 5 to 10 µM
4 | 4,6-O-bis(3-(4-(2-carboxyethyl)-1H-1,2,3-triazol-1-yl)propyl)-myo-inositol-1,2,3,5-tetrakis(phosphate) decasodium salt [Compound 35] | ≤ 5 µM
5 | 4,6-O-bis(3-(4-(methoxymethyl)-1H-1,2,3-triazol-1-yl)propyl)-myo-inositol-1,2,3,5-tetrakis(phosphate) octasodium salt [Compound 36] | 5 to 10 µM
6 | 4,6-O-bis(3-((methoxycarbonyl)amino)propyl)-myo-inositol-1,2,3,5-tetrakis(phosphate) octasodium salt [Compound 24] | > 10 µM
7 | 4,6-O-bis(3-methoxypropyl)-myo-inositol-1,2,3,5-tetrakis(phosphate) octasodium salt [Compound 10] | ≤ 5 µM
8 | 4,6-O-bis(4-amino-4-oxobutyl)-myo-inositol-1,2,3,5-tetrakis(phosphate) octasodium salt [Compound 26] | ≤ 5 µM
9 | 4,6-O-bis(4-methylpentyl)-myo-inositol-1,2,3,5-tetrakis(phosphate) octasodium salt [Compound 21] | > 10 µM
10 | 4,6-O-bis(5-(4-(methoxymethyl)-1H-1,2,3-triazol-1-yl) pentyl)-myo-inositol-1,2,3,5-tetrakis(phosphate) octasodium salt [Compound 38] | ≤ 5 µM
11 | 4,6-O-bis(5-carboxypentyl)-myo-inositol-1,2,3,5-tetrakis(phosphate) decasodium salt [Compound 18] | ≤ 5 µM
12 | 4,6-O-bis(5-methoxypentyl)-myo-inositol-1,2,3,5-tetrakis(phosphate) octasodium salt [Compound 9] | ≤ 5 µM
13 | 4,6-O-bis(6,6,6-trifluorohexyl)-myo-inositol-1,2,3,5-tetrakis(phosphate) octasodium salt [Compound 23] | > 10 µM
14 | 4,6-O-bis(6-(4-(methoxymethyl)-1H-1,2,3-triazol-1-yl) hexyl)-myo-inositol-1,2,3,5-tetrakis(phosphate) octasodium salt [Compound 39] | ≤ 5 µM
15 | 4,6-O-bis(10-carboxydecyl)-myo-inositol-1,2,3,5-tetrakis(phosphate) decasodium salt [Compound 19] | > 10 µM
16 | 4,6-O-bis(19-methoxynonadec-10-yn-1-yl)-myo-inositol-1,2,3,5-tetrakis(phosphate) octasodium salt [Compound 20] | ≤ 5 µM
17 | 4,6-O-bis((1-(3-methoxypropyl)-1H-1,2,3-triazol-4-yl)methyl)-myo-inositol-1,2,3,5-tetrakis(phosphate) octasodium salt [Compound 32] | ≤ 5 µM
18 | 4,6-O-bis((3-(4-carboxybutanamido)propyl))-myo-inositol-1,2,3,5-tetrakis(phosphate) decasodium salt [Compound 45] | ≤ 5 µM

Row | Compound | EC50
19 | 4,6-O-diheptyl-myo-inositol-1,2,3,5-tetrakis(phosphate) octasodium salt [Compound 5] | ≤ 5 µM
20 | 4,6-O-dipropyl-myo-inositol-1,2,3,5-tetrakis(phosphate) octasodium salt [Compound 4] | ≤ 5 µM
21 | CCCCCCCCCCOC1C(OP(=O)(O)O)C(OCCCCCCCCCC)C(OP(=O)(O)O)C(OP(=O)(O)O)C1OP(=O)(O)O (stereo not drawn) [Compound 2, 4,6-O-didecyl-myo-inositol-1,2,3,5-tetrakis(phosphate) octasodium salt] | > 10 µM
22 | O=P(O)(O)OC1C(OCCCCCCCCCCO)C(OP(=O)(O)O)C(OP(=O)(O)O)C(OP(=O)(O)O)C1OCCCCCCCCCCO (stereo not drawn) [Compound 7, 4,6-O-bis(10-hydroxydecyl)-myo-inositol-1,2,3,5-tetrakis(phosphate) octasodium salt] | > 10 µM
23 | COCCCCCCCOC1C(OP(=O)(O)O)C(OCCCCCCCOC)C(OP(=O)(O)O)C(OP(=O)(O)O)C1OP(=O)(O)O (stereo not drawn) [Compound 11, 4,6-O-bis(7-methoxyheptyl)-myo-inositol-1,2,3,5-tetrakis(phosphate) octasodium salt] | > 10 µM
24 | COCCCCCCCCCOC1C(OP(=O)(O)O)C(OCCCCCCCCCOC)C(OP(=O)(O)O)C(OP(=O)(O)O)C1OP(=O)(O)O (stereo not drawn) [Compound 12, 4,6-O-bis(9-methoxynonyl)-myo-inositol-1,2,3,5-tetrakis(phosphate) octasodium salt] | > 10 µM
25 | NCCCOC1C(OP(=O)(O)O)C(OCCCN)C(OP(=O)(O)O)C(OP(=O)(O)O)C1OP(=O)(O)O (stereo not drawn) [Compound 13, 4,6-O-bis(3-aminopropyl)-myo-inositol-1,2,3,5-tetrakis(phosphate) octasodium salt] | 5 to 10 µM
26 | NCCCCCO[C@@H]1[C@@H](OP(=O)(O)O)[C@H](OCCCCCN)[C@@H](OP(=O)(O)O)[C@@H](OP(=O)(O)O)[C@H]1OP(=O)(O)O [Compound 14, 4,6-O-bis(5-aminopentyl)-myo-inositol-1,2,3,5-tetrakis(phosphate) octasodium salt] | ≤ 5 µM
27 | NCCCCCCCCCCO[C@@H]1[C@@H](OP(=O)(O)O)[C@H](OCCCCCCCCCCN)[C@@H](OP(=O)(O)O)[C@@H](OP(=O)(O)O)[C@H]1OP(=O)(O)O [Compound 15, 4,6-O-bis(10-aminodecyl)-myo-inositol-1,2,3,5-tetrakis(phosphate) octasodium salt] | > 10 µM
28 | O=P(O)(O)OC1C(OCCCCCn2cccn2)C(OP(=O)(O)O)C(OP(=O)(O)O)C(OP(=O)(O)O)C1OCCCCCn1cccn1 (stereo not drawn) [Compound 16, 4,6-O-bis(5-(1H-pyrazol-1-yl)pentyl)-myo-inositol-1,2,3,5-tetrakis(phosphate) octasodium salt] | ≤ 5 µM
29 | O=P(O)(O)OC1C(OCCCCCn2cncn2)C(OP(=O)(O)O)C(OP(=O)(O)O)C(OP(=O)(O)O)C1OCCCCCn1cncn1 (stereo not drawn) [Compound 17, 4,6-O-bis(5-(1H-1,2,4-triazol-1-yl)pentyl)-myo-inositol-1,2,3,5-tetrakis(phosphate) octasodium salt] | > 10 µM
30 | O=P(O)(O)O[C@@H]1[C@@H](OCCCC(F)(F)F)[C@H](OP(=O)(O)O)[C@H](OP(=O)(O)O)[C@H](OP(=O)(O)O)[C@H]1OCCCC(F)(F)F [Compound 22, 4,6-O-bis(4,4,4-trifluorobutyl)-myo-inositol-1,2,3,5-tetrakis(phosphate) octasodium salt] | ≤ 5 µM
31 | COC(=O)NCCCCCOC1C(OP(=O)(O)O)C(OCCCCCNC(=O)OC)C(OP(=O)(O)O)C(OP(=O)(O)O)C1OP(=O)(O)O (stereo not drawn) [Compound 25, 4,6-O-bis(5-((methoxycarbonyl)amino)pentyl)-myo-inositol-1,2,3,5-tetrakis(phosphate) octasodium salt] | ≤ 5 µM
32 | O=P(O)(O)OC1C(OCCC2CC2)C(OP(=O)(O)O)C(OP(=O)(O)O)C(OP(=O)(O)O)C1OCCC1CC1 (stereo not drawn) [Compound 28, 4,6-O-bis(2-cyclopropylethyl)-myo-inositol-1,2,3,5-tetrakis(phosphate) octasodium salt] | ≤ 5 µM
33 | O=P(O)(O)O[C@@H]1[C@@H](OCCC2CCCC2)[C@H](OP(=O)(O)O)[C@H](OP(=O)(O)O)[C@H](OP(=O)(O)O)[C@H]1OCCC1CCCC1 [Compound 29, 4,6-O-bis(2-cyclopentylethyl)-myo-inositol-1,2,3,5-tetrakis(phosphate) octasodium salt] | ≤ 5 µM
34 | CCCNC(=O)NCCCCCOC1C(OP(=O)(O)O)C(OCCCCCNC(=O)NCCC)C(OP(=O)(O)O)C(OP(=O)(O)O)C1OP(=O)(O)O (stereo not drawn) [Compound 30, 4,6-O-bis(5-(3-propylureido)pentyl)-myo-inositol-1,2,3,5-tetrakis(phosphate) octasodium salt] | ≤ 5 µM
35 | O=C(O)CCn1cc(CO[C@@H]2[C@@H](OP(=O)(O)O)[C@H](OCc3cn(CCC(=O)O)nn3)[C@@H](OP(=O)(O)O)[C@@H](OP(=O)(O)O)[C@H]2OP(=O)(O)O)nn1 [Compound 31, 4,6-O-bis((1-(2-carboxyethyl)-1H-1,2,3-triazol-4-yl)methyl)-myo-inositol-1,2,3,5-tetrakis(phosphate) decasodium salt] | ≤ 5 µM
36 | COCCCCCCn1cc(COC2C(OP(=O)(O)O)C(OCc3cn(CCCCCCOC)nn3)C(OP(=O)(O)O)C(OP(=O)(O)O)C2OP(=O)(O)O)nn1 (stereo not drawn) [Compound 33, 4,6-O-bis((1-(6-methoxyhexyl)-1H-1,2,3-triazol-4-yl)methyl)-myo-inositol-1,2,3,5-tetrakis(phosphate) octasodium salt] | 5 to 10 µM
